In patent US20260374754A1, “N-((ISOQUINOLIN-6-YL)METHYL)-1H-PYRAZOLE-4-CARBOXAMIDE DERIVATIVES AS PLASMA KALLIKREIN INHIBITORS FOR THE TREATMENT OF HEREDITARY ANGIODEMA” (Takeda Pharmaceutical Company Limited, priority 2022, published 2026):
pEC50: −log10 of the molar value. Structures can show the parent of a compound that is named as a salt.

Molecular target: human activated kallikrein enzyme (Homo sapiens, UniProt P03952)
Assay: Inhibition of human activated plasma kallikrein, fluorogenic PFR-AMC substrate, 500 pM enzyme format
Type: biochemical
Conditions: 500 pM activated kallikrein; 300 μM PFR-AMC; 30 min preincubation; 10 min room temperature; pH 7.5; read-out: Primary Dose Response Assay: Average EC50
Procedure, shortened: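 500 pM activated kallikrein preincubated 30 min at room temperature with inhibitors in pH 7.5 Tris/EDTA/NaCl buffer with PEG-400 and Triton X-100. Reaction started with 300 μM PFR-AMC, run 10 min at room temperature; AMC fluorescence read at ex 380/em 460 nm.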

Chain of human activated kallikrein enzyme (P03952 391-638 limits assumed): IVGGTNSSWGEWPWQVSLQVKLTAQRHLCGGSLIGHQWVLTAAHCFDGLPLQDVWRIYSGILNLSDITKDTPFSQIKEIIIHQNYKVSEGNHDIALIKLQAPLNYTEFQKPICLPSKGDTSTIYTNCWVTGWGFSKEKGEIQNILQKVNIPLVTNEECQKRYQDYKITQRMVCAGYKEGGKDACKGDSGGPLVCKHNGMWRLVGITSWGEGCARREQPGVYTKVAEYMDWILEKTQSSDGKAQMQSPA
Chain of human activated kallikrein enzyme (P03952 20-390 partner limits assumed): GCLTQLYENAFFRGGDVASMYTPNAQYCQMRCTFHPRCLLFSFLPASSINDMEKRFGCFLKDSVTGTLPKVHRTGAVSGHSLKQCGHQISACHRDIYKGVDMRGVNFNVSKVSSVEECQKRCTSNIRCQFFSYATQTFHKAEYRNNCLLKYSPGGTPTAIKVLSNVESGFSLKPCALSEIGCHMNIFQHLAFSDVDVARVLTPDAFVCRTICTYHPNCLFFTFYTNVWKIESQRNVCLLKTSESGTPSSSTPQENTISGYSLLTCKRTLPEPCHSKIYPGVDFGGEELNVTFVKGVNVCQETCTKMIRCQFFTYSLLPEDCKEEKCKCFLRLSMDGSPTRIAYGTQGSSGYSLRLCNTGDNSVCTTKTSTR

Row | Structure (SMILES) | pEC50
1 | CCOC(=O)Cc1ccc(Cn2cc(C(=O)NCc3c(C)cc4c(N)nccc4c3C)cn2)cc1 [Example 55, ethyl 2-(4-((4-(((1-amino-5,7-dimethylisoquinolin-6-yl)methyl)carbamoyl)-1H-pyrazol-1-yl)methyl)phenyl)acetate] | 8.00 to 9.00
2 | Cc1cc2c(N)nccc2c(C)c1CNC(=O)c1cnn(Cc2cnc3c(C)cccc3c2)c1 [Example 72, N-((1-amino-5,7-dimethylisoquinolin-6-yl)methyl)-1-((8-methylquinolin-3-yl)methyl)-1H-pyrazole-4-carboxamide] | > 9.00
3 | Cc1cc2c(N)nccc2c(C)c1CNC(=O)c1cnn(Cc2ccc(Cc3nnco3)cc2)c1 [Example 44, 1-(4-((1,3,4-oxadiazol-2-yl)methyl)benzyl)-N-((1-amino-5,7-dimethylisoquinolin-6-yl)methyl)-1H-pyrazole-4-carboxamide] | 8.00 to 9.00
4 | Cc1cc2c(N)nccc2c(C)c1CNC(=O)c1cnc(Cc2cn3cc(C4CC4)ccc3n2)s1 [Example 198, N-((1-amino-5,7-dimethylisoquinolin-6-y1)methyl)-2-((6-cyclopropylimidazo[1,2-a]pyridin-2-yl)methyl)thiazole-5-carboxamide] | 8.00 to 9.00
5 | Cc1cc2c(N)nccc2c(C)c1CNC(=O)c1cnn(Cc2ccccc2C2CC2)c1 [Example 118, N-((1-amino-5,7-dimethylisoquinolin-6-yl)methyl)-1-(2-cyclopropylbenzyl)-1H-pyrazole-4-carboxamide] | 6.00 to 7.00
6 | Cc1c(CNC(=O)c2cnn(Cc3ccccc3)c2)c(C2(C)CC2)cc2c(N)nccc12 [Example 175, N-((1-amino-5-methy1-7-(1-methylcyclopropyl)isoquinolin-6-y1)methyl)-1-benzyl-1H-pyrazole-4-carboxamide] | 7.00 to 8.00
7 | Cc1cc2c(N)nccc2c(C)c1CNC(=O)c1cnn(Cc2cc3c(Cl)cccc3s2)c1 [Example 62, N-((1-amino-5,7-dimethylisoquinolin-6-yl)methyl)-1-((4-chlorobenzo[b]thiophen-2-yl)methyl)-1H-pyrazole-4-carboxamide] | 8.00 to 9.00
8 | Cc1ccc(Cn2cc(C(=O)NCc3c(C)cc4c(N)nccc4c3C)cn2)cc1Cl [Example 96, N-((1-amino-5,7-dimethylisoquinolin-6-yl)methyl)-1-(3-chloro-4-methylbenzyl)-1H-pyrazole-4-carboxamide] | 8.00 to 9.00
9 | Cc1cc2c(N)nccc2c(C)c1CNC(=O)c1cnn(Cc2ccc(CC(=O)N3C[C@@H]4[C@@H](CO)[C@@H]4C3)cc2)c1 [Example 208, N-((1-amino-5,7-dimethylisoquinolin-6-yl)methyl)-1-(4-(2-((1R,5S,6r)-6-(hydroxymethyl)-3-azabicyclo[3.1.0]hexan-3-y1)-2-oxoethyl)benzyl)-1H-pyrazole-4-carboxamide] | 7.00 to 8.00
10 | Cc1cc2c(N)nccc2c(C)c1CNC(=O)c1cnn(Cc2ccc(C(F)(F)F)cc2)c1 [Example 93, N-((1-amino-5,7-dimethylisoquinolin-6-yl)methyl)-1-(4-(trifluoromethyl)benzyl)-1H-pyrazole-4-carboxamide] | 7.00 to 8.00
11 | Cc1cc2c(N)nccc2c(C)c1CNC(=O)c1cnn(CC(=O)Nc2ccccc2)c1 [Example 154, N-((1-amino-5,7-dimethylisoquinolin-6-yl)methyl)-1-(2-oxo-2-(phenylamino)ethyl)-1H-pyrazole-4-carboxamide] | 6.00 to 7.00
12 | Cc1cc2c(N)nccc2c(C)c1CNC(=O)c1cnn(Cc2cn3c(Br)cccc3n2)c1 [Example 139, N-((1-amino-5,7-dimethylisoquinolin-6-yl)methyl)-1-((5-bromoimidazo[1,2-a]pyridin-2-yl)methyl)-1H-pyrazole-4-carboxamide] | > 9.00
13 | Cc1cc2c(N)nccc2c(C)c1CNC(=O)c1cnn(Cc2ccc3ccccc3c2)c1 [Example 56, N-((1-amino-5,7-dimethylisoquinolin-6-yl)methyl)-1-(naphthalen-2-ylmethyl)-1H-pyrazole-4-carboxamide] | 8.00 to 9.00
14 | Cc1cc2c(N)nccc2c(C)c1CNC(=O)c1cnn(Cc2ccc(N(C)C(=O)N(C)C)cc2)c1 [Example 22, N-((1-amino-5,7-dimethylisoquinolin-6-yl)methyl)-1-(4-(1,3,3-trimethylureido)benzyl)-1H-pyrazole-4-carboxamide] | 8.00 to 9.00

Further lines, results first:

Row | pEC50 | Structure (SMILES)
15 | > 9.00 | Cc1cc(CNc2cc(NCc3c(C)cc4c(N)nccc4c3C)ncn2)cc(C)c1Cn1cccn1 [Example 367, N^4-(4-((1H-pyrazol-1-yl)methyl)-3,5-dimethylbenzyl)-N^6-((1-amino-5,7-dimethylisoquinolin-6-yl)methyl)pyrimidine-4,6-diamine]
16 | > 9.00 | Cc1ccc2nc(COc3cnnc(NCc4c(C)cc5c(N)nccc5c4C)c3)cn2c1 [Example 425, 5,7-dimethyl-6-(((5-((6-methylimidazo[1,2-a]pyridin-2-yl)methoxy)pyridazin-3-yl)amino)methyl)isoquinolin-1-amine]
17 | > 9.00 | Cc1cc2c(N)nccc2c(C)c1CNc1cc(NCc2ccc(Cn3cccn3)cc2F)ncn1 [Example 379, N^4-(4-((1H-pyrazol-1-yl)methyl)-2-fluorobenzyl)-N^6-((1-amino-5,7-dimethylisoquinolin-6-yl)methyl)pyrimidine-4,6-diamine]
18 | 7.00 to 8.00 | COc1ccc2nc(CNc3cc(NCc4c(C)cc5c(N)nccc5c4C)ncn3)ccc2c1 [Example 307, N^4-((1-amino-5,7-dimethylisoquinolin-6-yl)methyl)-N^6-((6-methoxyquinolin-2-yl)methyl)pyrimidine-4,6-diamine]
19 | 6.00 to 7.00 | Cc1cc2c(N)nccc2c(C)c1CN1C(=O)c2ncc(NCc3cn4cc(C5CC5)ccc4n3)cc21 [Example 496, 7-((1-amino-5,7-dimethylisoquinolin-6-yl)methyl)-4-(((6-cyclopropylimidazo[1,2-a]pyridin-2-yl)methyl)amino)-2,7-diazabicyclo[4.2.0]octa-1,3,5-trien-8-one]
20 | 8.00 to 9.00 | Cc1cc2ccnc(NC(=O)OCc3ccccc3)c2c(C)c1CNc1cc(NCc2ccc(Cn3ccccc3=O)cc2)ncn1 [Example 248, benzyl (6,8-dimethyl-7-(((6-((4-((2-oxopyridin-1(2H)-yl)methyl)benzyl)amino)pyrimidin-4-yl)amino)methyl)isoquinolin-1-yl)carbamate]
21 | 7.00 to 8.00 | Cc1cc2c(N)nccc2c(C)c1CNC(c1cnn(Cc2ccc(Cn3ccccc3=O)cc2)c1)C(F)(F)F (stereo not shown) [Example I-471, 1-(4-((4-(1-(((1-amino-5,7-dimethylisoquinolin-6-yl)methyl)amino)-2,2,2-trifluoroethyl)-1H-pyrazol-1-yl)methyl)benzyl)pyridin-2(1H)-one]
22 | 8.00 to 9.00 | Cc1cc2c(N)nccc2c(C)c1CNc1cc(NCc2ccc(Cn3cccn3)cc2C(F)(F)F)ncn1 [Example 380, N^4-(4-((1H-pyrazol-1-yl)methyl)-2-(trifluoromethyl)benzyl)-N^6-((1-amino-5,7-dimethylisoquinolin-6-yl)methyl)pyrimidine-4,6-diamine]
23 | > 9.00 | Cc1cc2c(N)nccc2c(C)c1CNc1cc(OCc2ccc(Cn3ccccc3=O)cc2)cnn1 [Example 436, 1-(4-(((6-(((1-amino-5,7-dimethylisoquinolin-6-yl)methyl)amino)pyridazin-4-yl)oxy)methyl)benzyl)pyridin-2(1H)-one]
24 | > 9.00 | Cc1cc2c(N)nccc2c(C)c1CNc1cc(NCc2ccc(Cn3cccn3)cc2F)cnn1 [Example 385, N^5-(4-((1H-pyrazol-1-yl)methyl)-2-fluorobenzyl)-N^3-((1-amino-5,7-dimethylisoquinolin-6-yl)methyl)pyridazine-3,5-diamine]
25 | < 6.00 | Cc1cc2c(N)nccc2c(C)c1CNc1ccc2ncc(Cc3ccc4ccccc4c3)n2c1 [Example 522, 5,7-dimethyl-6-(((3-(naphthalen-2-ylmethyl)imidazo[1,2-a]pyridin-6-yl)amino)methyl)-isoquinolin-1-amine]
26 | 8.00 to 9.00 | CCOC(=O)CCc1cc(C2CC2)cc2cc(COc3cc(NCc4c(C)cc5c(N)nccc5c4C)ncn3)nn12 [Example 270, ethyl 3-(2-(((6-(((1-amino-5,7-dimethylisoquinolin-6-yl)methyl)amino)pyrimidin-4-yl)oxy)methyl)-5-cyclopropylpyrazolo[1,5-a]pyridin-7-yl)propanoate]
27 | 8.00 to 9.00 | Cc1cc2c(N)nccc2c(C)c1CNC(=O)c1cnn(Cc2ccc(CC(=O)N3CCCCC3)cc2)c1 [Example 223, N-((1-amino-5,7-dimethylisoquinolin-6-yl)methyl)-1-(4-(2-oxo-2-(piperidin-1-yl)ethyl)benzyl)-1H-pyrazole-4-carboxamide]
28 | 6.00 to 7.00 | Cc1cc2c(N)nccc2c(C)c1CNc1cc(OCc2ccc3nccn3c2)cnn1 [Example 410, 6-(((5-(imidazo[1,2-a]pyridin-6-ylmethoxy)pyridazin-3-yl)amino)methyl)-5,7-dimethylisoquinolin-1-amine]
29 | > 9.00 | Cc1cc2c(N)nccc2c(C)c1CNc1cc(NCc2ccc(OCC(=O)N3CCC3)cc2)ncn1 [Example 347, 2-(4-(((6-(((1-amino-5,7-dimethylisoquinolin-6-yl)methyl)amino)pyrimidin-4-yl)amino)methyl)phenoxy)-1-(azetidin-1-yl)ethan-1-one, formic acid salt]
30 | > 9.00 | Cc1cc2c(N)nccc2c(C)c1CNc1cc(NCc2cn3c(C)c(Cl)ccc3n2)ncn1 [Example 330, N^4-((1-amino-5,7-dimethylisoquinolin-6-yl)methyl)-N^6-((6-chloro-5-methylimidazo[1,2-a]pyridin-2-yl)methyl)pyrimidine-4,6-diamine]
31 | > 9.00 | Cc1cc2c(N)nccc2c(C)c1CNc1cc(OCc2ccc(CN3CCCCC3=O)cc2)cnn1 [Example 433, 1-(4-(((6-(((1-amino-5,7-dimethylisoquinolin-6-yl)methyl)amino)pyridazin-4-yl)oxy)methyl)benzyl)piperidin-2-one]
